Assay results as given in US20230010110A1, “HISTATIN-1 FORMULATION FOR THE TREATMENT, REPAIR OR REGENERATION OF BONE TISSUE IN A SUBJECT” (UNIVERSIDAD DE CHILE, priority 2019, published 2023).
Entries after “also recorded” stand apart in the source; their conditions may differ.

Assays:
[1] = tested on: Alkaline Phosphatase (ALP) in SAOS-2 cells; experiment: alkaline phosphatase activity, p-nitrophenyl phosphate, absorbance at 405 nm; format: cell-based; settings: SAOS-2, 10 μM, 24 and 48 h
Procedure: (§1) In (A) SAOS-2 and (B) MC3T3-E1 cells were incubated in the absence or presence of 10 μM Histatin-1 for 24 h, and whole cell lysates were analyzed by Western blotting of ALP. […] In (C) SAOS-2 cells were treated or not with 10 μM Histatin-1 for 24 and 48 h, and the activity of alkaline phosphatase (ALP) was measured by metabolization of the substrate p-nitrophenyl phosphate, following absorbance at 405 nm.
Representative Western blot images are shown, and relative levels of ALP were quantified by scanning densitometry and normalized to actin. Graphs represent the average from 3 independent experiments (mean±s.e.m.; *p<0.05). (C) SAOS 2 cells were treated or not with 10 μM Histatin 1 for 24 and 48 h, and the activity of alkaline phosphatase (ALP) was measured by metabolization of the substrate p-nitrophenyl phosphate, following absorbance at 405 nm. Data were averaged from 3 independent experiments and shown as residual activity (% increase with respect to the control condition; mean±s.e.m; *p<0.05).

angiogenesis = settings: in vivo; cited from earlier work
osteoblastic cells = settings: zoledronic acid challenge; cited from earlier work
endothelial cells = settings: in vitro; cited from earlier work
[2] = tested on: stem cells from the apical papilla (APMCs); experiment: in vitro mineralization test (alizarin red); format: cell-based; settings: 10 μM, 7 days
Procedure: (§2) The ability of Histatin-1 to stimulate the formation of calcium deposits was determined by the alizarin red staining test. For this, SAOS-2 cells, MC3T3-E1 preosteoblasts, stem cells from the apical papilla or dental pulp stem cells were grown in complete medium supplemented with bovine serum, in the absence or presence 10 μM Histatin-1 for 7 days. […] Cells were washed with PBS, fixed with 4% paraformaldehyde, and stained with Alizarin Red aqueous solution for 1 h. Finally, samples were washed with distilled water and subsequently with PBS. Calcium deposits were visualized in an optic microscope. Representative images are shown, and graphs represent the quantification of the amount of calcium deposits. Values are shown as the mean±s.e.m (*p<0.01; ***p<0.001).
(§3) The same procedure was performed on stem cells of the apical papilla and dental pulp.

[3] = tested on: dental pulp mesenchymal cells; experiment: in vitro mineralization test (alizarin red); format: cell-based; settings: dental pulp mesenchymal (stem) cells, 10 μM, 7 days
Procedure: as §2, §3

[4] = tested on: Runx2, osteocalcin, osteopontin and ALP mRNA in MC3T3-E1 cells; experiment: RT qPCR of osteoblastic differentiation markers; format: cell-based; settings: MC3T3-E1, 10 μM, 7 days
Procedure: (§4) (A) MC3T3-E1 and (B) AMPCs cells were treated or not with 10 μM Histatin-1 for 7 days. Total RNA was extracted, for subsequent RT qPCR analysis of Runx2, osteocalcin, osteopontin and ALP.
(§5) To evaluate the differentiation towards bone lineage in the presence of Histatin-1, the expression of the osteocalcin, osteopontin, Runx2 and ALP gene were determined, as markers of differentiation, by means of a qPCR assay for mRNA content analysis. For this, osteoblasts-like cells and stem cells from the apical papilla were grown in complete medium supplemented with bovine serum, in the absence or presence of 10 μM Histatin-1 for 24 h. Total RNA was extracted with TRIZOL (Invitrogen, Life Technologies), following the manufacturer's instructions. For cDNA synthesis, samples were treated with RNase-Free DNase kit (#M6101 Promega), quantified and purity was verified for subsequent reverse transcription, using the cDNA Reverse Transcription Kit (Applied Biosystems). Alkaline phosphatase, osteocalcin, osteopontin, Runx2 and GAPDH were quantified by qRT-PCR (Applied Biosystems, ΔΔCt method).
(§6) Total RNA was extracted, for subsequent RT qPCR analysis of Runx2, osteocalcin, osteopontin and ALP. Relative abundance of all screened mRNAs was normalized to GAPDH, by using the ΔΔCT method. Graphs show data obtained by averaging 3 independent experiments (mean±s.e.m.; *p<0.05; **p<0.01).

[5] = tested on: Runx2, osteocalcin, osteopontin and ALP mRNA in APMCs; experiment: RT qPCR of osteoblastic differentiation markers; format: cell-based; settings: 10 μM, 7 days
Procedure: as §4, §5, §6

[6] = tested on: Alkaline Phosphatase (ALP) in MC3T3-E1 cells; experiment: Western blot of alkaline phosphatase in whole cell lysates; format: cell-based; settings: MC3T3-E1, 10 μM, 24 h
Procedure: as §1
(§7) By Western blot assay, the effect of Histatin-1 on the expression of two proteins involved in the osteogenesis process (alkaline phosphatase, β-catenin) was evaluated. For this, SAOS-2 or MC3T3-E1 cells were seeded on 60 mm plates, grown in complete medium supplemented with bovine serum for 24 h, washed with PBS and then incubated for 24 h with either serum-free medium or serum-free medium containing 10 μM Histatin-1. […] Bound first antibodies were detected with HRP-conjugated second antibodies and detected with the EZ-ECL system.
(§8) Representative Western blot images are shown, and relative levels of ALP were quantified by scanning densitometry and normalized to actin. […] (C) SAOS 2 cells were treated or not with 10 μM Histatin 1 for 24 and 48 h, and the activity of alkaline phosphatase (ALP) was measured by metabolization of the substrate p-nitrophenyl phosphate, following absorbance at 405 nm. […]

[7] = tested on: Alkaline Phosphatase (ALP) in SAOS-2 cells; experiment: as above; format: cell-based; settings: SAOS-2, 10 μM, 24 h
Procedure: as §1, §7, §8

[8] = tested on: apical papilla mesenchymal cells, APMCs; experiment: Transwell cell migration assay; format: cell-based; settings: 10 μM, 60 min, Transwell coated with 2 μg/ml fibronectin
Procedure: (§9) For this, (A) SAOS 2 cells were collected, resuspended in serum-free medium either containing or not 10 μM Histatin-1, and incubated for 30 min. Cells were then allowed to attach to fibronectin coated plates (2 μg/ml) for 5, 10, 15, 30, 45 and 60 min in serum-free medium, containing or not 10 μM Histatin-1. Cell adhesion was detected by crystal violet staining and counting under an optic microscope. Representative images are shown for each time point, in the absence or presence of Histatin 1. […] (B, C and D) Cell migration was measured in Transwell chambers coated with 2 μg/ml fibronectin. Briefly, SAOS 2 (B), MC3T3 E1 cells (C) and APMCs (apical papilla mesenchymal cells, D) were allowed to migrate for 60 min in Transwell chambers, in the presence of 10 μM Histatin 1 or 10 μM of non-phosphorylated Histatin 1 (no P), 10 μM of a scramble sequence or vehicle control (H2O). Cells that migrated were visualized by crystal violet staining. Representative images are shown, and graphs represent the averages of 3 independent experiments (mean±s.e.m; *p<0.05; **p<0.01).

[9] = tested on: SAOS-2 osteosarcoma cells; experiment: Transwell cell migration assay; format: cell-based; settings: SAOS-2, 10 μM, 60 min, Transwell coated with 2 μg/ml fibronectin
Procedure: as §9

MC3T3-E1 pre-osteoblasts = experiment: Transwell cell migration assay; format: cell-based; settings: MC3T3-E1, 10 μM, 60 min, Transwell coated with 2 μg/ml fibronectin
Procedure: as §9

[10] = tested on: SAOS-2 osteosarcoma cells; experiment: in vitro cell adhesion to fibronectin coated plates, crystal violet staining; format: cell-based; settings: SAOS-2, 10 μM Histatin-1, fibronectin 2 μg/ml, 5-60 min, serum-free medium
Procedure: as §9

SAOS-2 cells = experiment: in vitro mineralization test (alizarin red); format: cell-based; settings: SAOS-2, 10 μM, 7 days
Procedure: as §2

MC3T3-E1 preosteoblasts = experiment: in vitro mineralization test (alizarin red); format: cell-based; settings: MC3T3-E1, 10 μM, 7 days
Procedure: as §2

[11] = tested on: β-catenin in SAOS-2 cells; experiment: immunofluorescence of total and non-phosphorylated β-catenin nuclear localization; format: cell-based; settings: SAOS-2, 10 μM, 24 h
Procedure: (§10) In (A) SAOS-2 cells were incubated in the absence or presence of 10 μM Histatin-1 for 24 h, and whole cell lysates were prepared for Western blot analysis of β-catenin. […] In (B) SAOS-2 cells were incubated with Histatin-1 for 24 hours. Cells were then fixed, permeabilized and incubated with primary and secondary antibodies for subsequent immunofluorescence analysis of total and non-phosphorylated (transcriptionally active) β-catenin.
Representative Western blot images are shown, and relative levels of β catenin were quantified by scanning densitometry and normalized to actin. Graphs represent the average from 3 independent experiments (mean±s.e.m.; *p<0.05). (B) SAOS 2 cells were treated or not with 10 μM Histatin 1 for 24 h, then fixed, permeabilized and analyzed incubated with primary and secondary antibodies for subsequent immunofluorescence analysis of total and non-phosphorylated (transcriptionally active) β-catenin. Left panels show representative confocal microscopy images of total and active β-catenin, whereas nuclei staining with DAPI was used as reference. […]
Alternatively, SAOS-2 cells grown on coverslips were fixed, permeabilized and analyzed for total and active β-catenin nuclear localization.

[12] = tested on: β-catenin in SAOS-2 cells; experiment: Western blot of β-catenin in whole cell lysates; format: cell-based; settings: SAOS-2, 10 μM, 24 h
Procedure: as §10, §7
Representative Western blot images are shown, and relative levels of β catenin were quantified by scanning densitometry and normalized to actin. […] (B) SAOS 2 cells were treated or not with 10 μM Histatin 1 for 24 h, then fixed, permeabilized and analyzed incubated with primary and secondary antibodies for subsequent immunofluorescence analysis of total and non-phosphorylated (transcriptionally active) β-catenin. […]

In the case of “Histatin-1: human salivary peptide of 38 amino acids, obtained by chemical synthesis, with the sequence SEQ ID NO. 1 (DSHEKRHHGYRRKFHEKHHSHREFPFYGDYGSNYLYDN; listed as Homo sapiens)”, the “activity of alkaline phosphatase (ALP)” value [1] is listed as “increases the activity of ALP”, the angiogenesis (angiogenesis) is listed as “angiogenesis in vivo” and the “cell migration in cells challenged with zoledronic acid” value (osteoblastic cells) is listed as “restored both cell migration and viability”. The “cell viability in cells challenged with zoledronic acid” value (osteoblastic cells) was “restored both cell migration and viability”, the endothelial cell migration (endothelial cells) was “stimulating endothelial cell migration” and the “formation of endothelial structures” value (endothelial cells) was “formation of endothelial structures in vitro”. For the same substance, the “calcium deposits / crystal nucleation sites (alizarin red)” value [2] was “increases the number of crystal nucleation sites; also recorded: stimulated the formation of calcium deposits”, the “calcium deposits / crystal nucleation sites (alizarin red)” value [3] was “increases the number of crystal nucleation sites; also recorded: stimulated the formation of calcium deposits” and the “mRNA of osteoblastic differentiation markers (Runx2, osteocalcin, osteopontin, ALP), normalized to GAPDH” value [4] was “increases the mRNA of different osteoblastic differentiation markers; also recorded: induces an increase in the relative abundance of mRNA”. For the same substance, the “mRNA of osteoblastic differentiation markers (Runx2, osteocalcin, osteopontin, ALP), normalized to GAPDH” value [5] was “increases the mRNA of different osteoblastic differentiation markers; also recorded: induces an increase in the relative abundance of mRNA”, the “protein levels of ALP (Western blot, normalized to actin)” value [6] was “increases the protein levels of ALP” and the “protein levels of ALP (Western blot, normalized to actin)” value [7] was “increases the protein levels of ALP; also recorded: increased the production of this enzyme”. For the same substance, the cell migration [8] was “favors both cell adhesion and migration”, the cell migration [9] was “favors both cell adhesion and migration” and the cell migration (MC3T3-E1 pre-osteoblasts) was “favors both cell adhesion and migration”. The cell adhesion [10] was “favors both cell adhesion and migration”, the “calcium deposits / crystal nucleation sites (alizarin red)” value (SAOS-2 cells) was “increases the number of crystal nucleation sites; also recorded: increased staining of the culture with Alizarin Red” and the “calcium deposits / crystal nucleation sites (alizarin red)” value (MC3T3-E1 preosteoblasts) was “increases the number of crystal nucleation sites; also recorded: increased staining of the culture with Alizarin Red”. The “nuclear localization of active (non-phosphorylated) β-catenin” value [11] was “increases the nuclear localization of total and active β-catenin”, the “nuclear localization of total β-catenin” value [11] was “increases the nuclear localization of total and active β-catenin” and the “protein levels of β-catenin (Western blot, normalized to actin)” value [12] was “increases the protein levels of β-catenin; also recorded: increases the expression of the protein”.
